Target: human PDE2A1 (Homo sapiens (Human), UniProt O00408)
Experiment: PDE selectivity IMAP FP assay, human PDE2A1
Format: biochemical
Conditions: Human PDE2; Lab B; read-out: Human PDE2 Ki (nM) Lab B
Summary of the method: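 Compound titrations run against PDE2 in Tris HCl pH 7.2 buffer with MgCl2 and DTT for 60 min at room temperature, using 50 nM FAM-cAMP plus 1000 nM cGMP and enzyme giving 20% conversion.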

Sequence of human PDE2A1 (O00408 other isoform, or with tags, fused parts or gaps): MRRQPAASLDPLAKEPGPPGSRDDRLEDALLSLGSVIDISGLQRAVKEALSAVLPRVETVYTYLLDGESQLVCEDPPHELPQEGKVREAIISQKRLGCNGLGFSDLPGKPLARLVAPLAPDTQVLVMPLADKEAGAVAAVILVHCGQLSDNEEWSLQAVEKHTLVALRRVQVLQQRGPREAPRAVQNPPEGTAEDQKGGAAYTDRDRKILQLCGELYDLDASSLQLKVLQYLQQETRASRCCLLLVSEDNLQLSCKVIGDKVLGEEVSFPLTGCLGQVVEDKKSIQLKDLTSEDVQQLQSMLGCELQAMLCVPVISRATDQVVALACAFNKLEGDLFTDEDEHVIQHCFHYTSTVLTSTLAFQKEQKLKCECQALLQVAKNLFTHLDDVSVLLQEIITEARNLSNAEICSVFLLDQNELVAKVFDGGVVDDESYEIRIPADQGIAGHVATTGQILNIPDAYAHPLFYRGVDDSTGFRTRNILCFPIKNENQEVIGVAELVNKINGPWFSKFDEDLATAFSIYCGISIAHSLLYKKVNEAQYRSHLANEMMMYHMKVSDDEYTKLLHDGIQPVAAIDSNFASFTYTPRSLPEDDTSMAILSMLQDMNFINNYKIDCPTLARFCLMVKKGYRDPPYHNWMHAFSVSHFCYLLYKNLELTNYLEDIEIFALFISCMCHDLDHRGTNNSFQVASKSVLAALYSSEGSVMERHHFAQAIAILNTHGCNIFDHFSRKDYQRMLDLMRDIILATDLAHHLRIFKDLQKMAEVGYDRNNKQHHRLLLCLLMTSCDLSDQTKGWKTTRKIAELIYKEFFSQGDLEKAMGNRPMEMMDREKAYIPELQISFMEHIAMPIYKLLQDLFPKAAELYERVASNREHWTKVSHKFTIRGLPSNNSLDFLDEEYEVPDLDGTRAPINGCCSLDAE

| Ki | Compound |
| --- | --- |
| 6.5 nM | CCC(c1ccc(C(F)F)cc1)n1nc(CF)c2c(=O)[nH]c(N(C)C)nc21 (single isomer, unassigned) [Example 346, (R)- or (S)-1-(1-(4-(Difluoromethyl)phenyl)propyl)-6-(dimethylamino)-3-(fluoromethyl)-1H-pyrazolo[3,4-d]pyrimidin-4(5H)-one] |
| 0.08 nM | CCC(c1ccc(C(F)F)cc1)n1nc(CF)c2c(=O)[nH]c(N(C)C)nc21 (single isomer, unassigned) [Example 347, (S)- or (R)-1-(1-(4-(Difluoromethyl)phenyl)propyl)-6-(dimethylamino)-3-(fluoromethyl)-1H-pyrazolo[3,4-d]pyrimidin-4(5H)-one] |
| 0.03 nM | CCC(c1ccc(C(F)F)cc1F)n1nc(CF)c2c(=O)[nH]c(N(C)C)nc21 (single isomer, unassigned) [Example 348, (R)- or (S)-1-(1-(4-(difluoromethyl)-2-fluorophenyl)propyl)-6-(dimethylamino)-3-(fluoromethyl)-1H-pyrazolo[3,4-d]pyrimidin-4(5H)-one] |
| 4 nM | CCC(c1ccc(C(F)F)cc1F)n1nc(CF)c2c(=O)[nH]c(N(C)C)nc21 (single isomer, unassigned) [Example 349, (S)- or (R)-1-(1-(4-(difluoromethyl)-2-fluorophenyl)propyl)-6-(dimethylamino)-3-(fluoromethyl)-1H-pyrazolo[3,4-d]pyrimidin-4(5H)-one] |
| 0.14 nM | CN(C)c1nc2c(c(CO)nn2C(c2ccc(C(C)(F)F)c(F)c2)C2CC2)c(=O)[nH]1 (single isomer, unassigned) [Example 350, (R)- or (S)-1-(Cyclopropyl(4-(1,1-difluoroethyl)-3-fluorophenyl)methyl)-6-(dimethylamino)-3-(hydroxymethyl)-1H-pyrazolo[3,4-d]pyrimidin-4(5H)-one] |
| 0.02 nM | CN(C)c1nc2c(c(CO)nn2C(c2ccc(C(C)(F)F)c(F)c2)C2CC2)c(=O)[nH]1 (single isomer, unassigned) [Example 351, (S)- or (R)-1-(Cyclopropyl(4-(1,1-difluoroethyl)-3-fluorophenyl)methyl)-6-(dimethylamino)-3-(hydroxymethyl)-1H-pyrazolo[3,4-d]pyrimidin-4(5H)-one] |
| 1.2 nM | CN(C)c1nc2c(c(CO)nn2C(c2ccc(C(C)(F)F)cc2F)C2CC2)c(=O)[nH]1 (single isomer, unassigned) [Example 352, (R)- or (S)-1-(Cyclopropyl(4-(1,1-difluoroethyl)-2-fluorophenyl)methyl)-6-(dimethylamino)-3-(hydroxymethyl)-1H-pyrazolo[3,4-d]pyrimidin-4(5H)-one] |
| 0.05 nM | CN(C)c1nc2c(c(CO)nn2C(c2ccc(C(C)(F)F)cc2F)C2CC2)c(=O)[nH]1 (single isomer, unassigned) [Example 353, (S)- or (R)-1-(Cyclopropyl(4-(1,1-difluoroethyl)-2-fluorophenyl)methyl)-6-(dimethylamino)-3-(hydroxymethyl)-1H-pyrazolo[3,4-d]pyrimidin-4(5H)-one] |
| 0.68 nM | CC(C)C(c1ccc(C(C)(F)F)cc1)n1nc(CO)c2c(=O)[nH]c(N)nc21 (single isomer, unassigned) [Example 356] |
| 19 nM | CC(C)C(c1ccc(C(C)(F)F)cc1)n1nc(CO)c2c(=O)[nH]c(N)nc21 (single isomer, unassigned) [Example 357] |
| 5.3 nM | CNc1nc2c(c(CO)nn2C(c2ccc(C(C)(F)F)cc2)C(C)C)c(=O)[nH]1 (single isomer, unassigned) [Example 358] |
| 0.33 nM | CNc1nc2c(c(CO)nn2C(c2ccc(C(C)(F)F)cc2)C(C)C)c(=O)[nH]1 (single isomer, unassigned) [Example 359] |
| 3.8 nM | C[C@@H](c1ccc(C(F)(F)F)cc1)n1nc(CO)c2c(=O)[nH]c(NCCCCl)nc21 [Example 155, 6-[(3-Chloropropyl)amino]-3-(hydroxymethyl)-1-{(1S)-1-[4-(trifluoromethyl)-phenyl]ethyl}-1,5-dihydro-4H-pyrazolo[3,4-d]pyrimidin-4-one] |
| 12 nM | C[C@@H](c1ccc(C(F)(F)F)cc1)n1nc(CO)c2c(=O)[nH]c(N)nc21 [Example 157, 6-Amino-3-(hydroxymethyl)-1-{(1S)-1-[4-(trifluoromethyl)phenyl]ethyl}-1,5-dihydro-4H-pyrazolo[3,4-d]pyrimidin-4-one] |
| 2.3 nM | C[C@@H](c1ccc(C(F)(F)F)cc1)n1nc(CO)c2c(=O)[nH]c(N3CC(F)(F)C3)nc21 [Example 159, 6-(3,3-Difluoroazetidin-1-yl)-3-(hydroxymethyl)-1-{(1S)-1-[4-(trifluoromethyl)phenyl]ethyl}-1,5-dihydro-4H-pyrazolo[3,4-d]pyrimidin-4-one] |
| 1.8 nM | CSc1nc2c(c(CO)nn2[C@@H](C)c2ccc(C(F)(F)F)cc2)c(=O)[nH]1 [Example 301, (S)-3-(Hydroxymethyl)-6-(methylthio)-1-(1-(4-(trifluoromethyl)phenyl)ethyl)-1H-pyrazolo[3,4-d]pyrimidin-4(5H)-one] |
| 2.1 nM | C[C@@H](c1ccc(C(F)(F)F)cc1)n1nc(C(F)(F)F)c2c(=O)[nH]c(N(C)C)nc21 [Example 339, (S)-6-(Dimethylamino)-3-(trifluoromethyl)-1-(1-(4-(trifluoromethyl)phenyl)ethyl)-1H-pyrazolo[3,4-d]pyrimidin-4(5H)-one] |
| 2.4 nM | O=c1[nH]c(O)nc2c1c(C(F)(F)F)nn2C1(c2ccc(C(F)(F)F)cc2)CC1 [Example 354, 6-Hydroxy-3-(trifluoromethyl)-1-(1-(4-(trifluoromethyl)phenyl)cyclopropyl)-1H-pyrazolo[3,4-d]pyrimidin-4(5H)-one] |
| 284 nM | C=CC(c1ccc(C(F)(F)F)cc1)n1nc(C(F)(F)F)c2c(=O)[nH]c(O)nc21 (centres unmarked) [Example 355, 6-Hydroxy-3-(trifluoromethyl)-1-(1-(4-(trifluoromethyl)phenyl)allyl)-1H-pyrazolo[3,4-d]pyrimidin-4(5H)-one] |

| Compound | Ki |
| --- | --- |
| C[C@@H](c1ccc(C(F)(F)F)cc1)n1nc(CO)c2c(=O)[nH]c(N3CCC3)nc21 [Example 158, (S)-6-(Azetidin-1-yl)-3-(hydroxymethyl)-1-(1-(4-(trifluoromethyl)phenyl)ethyl)-1,5-dihydro-4H-pyrazolo[3,4-d]pyrimidin-4-one] | 0.89 nM |
| CC1CN(c2nc3c(c(CO)nn3[C@@H](C)c3ccc(C(F)(F)F)cc3)c(=O)[nH]2)C1 [Example 160, 3-(Hydroxymethyl)-6-(3-methylazetidin-1-yl)-1-{(1S)-1-[4-(trifluoromethyl)phenyl]ethyl}-1,5-dihydro-4H-pyrazolo[3,4-d]pyrimidin-4-one] | 1.6 nM |
| C[C@@H](c1ccc(C(F)(F)F)cc1)n1nc(C(F)F)c2c(=O)[nH]c(N(C)C)nc21 [Example 289, (S)-3-(Difluoromethyl)-6-(dimethylamino)-1-(1-(4-(trifluoromethyl)phenyl)ethyl)-1H-pyrazolo[3,4-d]pyrimidin-4(5H)-one] | 0.25 nM |
| C[C@@H](c1ccc(C(F)(F)F)cc1)n1nc(C(F)F)c2c(=O)[nH]c(N3CCC3)nc21 [compound 290, 6-Azetidin-1-yl-3-(difluoromethyl)-1-{(1S)-1-[4-(trifluoromethyl)phenyl]ethyl}-1,5-dihydro-4H-pyrazolo[3,4-d]pyrimidin-4-one] | 0.26 nM |

Reference: patent publication US10174037B2, “Dihydropyrazolopyrimidinone compounds as PDE2 inhibitors” (Merck Sharp & Dohme Corp., priority 2015, dated 2019)
